Measured values as given in patent US11225474B2, “Crystalline salt forms of 3-(1,2,4-triazolo[4,3-a]pyridine-3-ylethynyl)-4-methyl-N-(4-((4-methylpiperazin-1-yl)methyl)-3-trifluoromethylphenyl)benzamide for medical application” (priority 2016, dated 2022).
Like-named read-outs stand apart in the source and are kept apart here.

Tests used:
Bcr-Abl (G250E) = Bcr-Abl (G250E) (Homo sapiens, UniProt P00519, G250E, form not given); experiment: Bcr-Abl tyrosine kinase enzyme activity
Bcr-Abl (Y253F) = Bcr-Abl (Y253F) (Homo sapiens, UniProt P00519, Y253F, form not given); experiment: Bcr-Abl tyrosine kinase enzyme activity
EPHA8 = EPHA8 (Homo sapiens, UniProt P29322); experiment: Human kinase panel at 100 nM; assay type: biochemical
Gene toxicity: Ames test = assay type: cell-based; details: all concentrations tested
Bcr-Abl (H396P) = Bcr-Abl (H396P) (Homo sapiens, UniProt P00519, H396P, form not given); experiment: Bcr-Abl tyrosine kinase enzyme activity
BV-173 = experiment: Cytotoxicity, Ph+ CML model cell line; assay type: cell-based; details: Homo sapiens, read-out: IC50 (toxicity)
Bcr-Abl (T315I) = Bcr-Abl (T315I) (Homo sapiens, UniProt P00519, T315I, form not given); experiment: Bcr-Abl tyrosine kinase enzyme activity; details: 3 independent experiments
physchem = details: deionized water, thermodynamic from solid, Equilibrium solubility, HPLC analysis
mice = experiment: Acute toxicity studies, mice; assay type: in vivo
CD-1 line mice males = experiment: Acute toxicity, oral route, mice; details: for LD10 / LD90: oral, male CD-1 mice
Source text: (§1) For each drug dose study a group of six animals was used. The study included control groups with the same animal headcount, which received equivalent solvent doses of a 0.5% water solution of methylcellulose. The follow-up period was 28 days. Lab mouse survivability analysis allowed carrying out Bliss analysis and determining the lethal doses of the studied drugs.

[1] = Acute toxicity, oral route, mice; details: male, CD-1, mouse, in vivo, po, LD50, oral, male CD-1 mice
Source text: as §1

[2] = Drug distribution in rat tissues; assay type: in vivo
in vivo [3] = experiment: in vivo; design: species or system C57BL/6 line mice; details: mouse, plasma; mesylate polymorphous modification I 59 mg/kg (50 mg/kg as free base), single oral, C57BL/6 mice; read-out: Cmax
Method: FIGS. 52A-52B. […] The mean values were determined for each time point on the basis of the individual data obtained from three animals.
The results of the study are given in FIG. 52 and in Tables 14 and 15.

Guinea pigs and mice = experiment: Allergenic properties (anaphylaxis, ITH, DTH and related models); assay type: in vivo, Guinea pig; mice; details: all models studied
Source text: To identify allergenic properties, the following methods were used: evaluation of anaphylactogenic activity using Guinea pig general systemic anaphylaxis and active cutaneous anaphylaxis models; evaluation of immediate-type hypersensitivity (ITH) reaction and delayed-type hypersensitivity (DTH) reaction in Guinea pigs following epicutaneous and conjunctival drug application; evaluation of DTH reaction in mice; study of the inflammation reaction to A concanavalin in mice; measuring of eosinophil blood count, evaluation of the effect on phagocyte neutrophil activity (Nitro Blue-Tetrazolium Test (NBT)), and leukocyte specific lysis reaction scenario using a Guinea pig model with subcutaneous administration of the drug.

potassium hERG channel = potassium hERG channel (Homo sapiens, UniProt Q12809); experiment: Effect on the ion hERG channel; assay type: cell-based; details: tested at 0.1-10 μM, mesylate salt
CYP2D6 = CYP2D6 (Homo sapiens, UniProt P10635); experiment: Metabolism study using cytochrome enzyme drugs; assay type: in vitro ADME; details: 2D6
K562 = experiment: Cytotoxicity, Ph+ CML model cell line; assay type: cell-based; details: Homo sapiens, read-out: IC50 (toxicity)
in vivo [4] = details: for Vd / half-life / clearance / AUC / bioavailability: in vivo; for Vd: read-out: apparent volume of distribution Vd; for half-life: read-out: half-life period (converted); for clearance: intravenous administration; for bioavailability: read-out: bioavailability F
Source text: Clearance following intravenous administration is quite high: 2.12 L/h/kg for dogs, 1.61 L/h/kg for rats. A large apparent volume of distribution (Vd=14.1 L/kg for dogs, 6.16 L/kg for rats) indicates extensive drug distribution in tissues.

[5] = system: marrow cells obtained from C57BL/6N line mice with induced acute leukemia; experiment: Acute leukemia mouse model; assay type: in vivo; details: oral, 40 mg/kg (34 mg/kg as free base), 2 weeks
Method: To induce the pathology, marrow cells obtained from C57BL/6N line mice with induced acute leukemia were used. Cells were injected to the tail vein of an animal following administration of a sub lethal dose of radiation. Therapy was initiated on the 5th day after pathology induction and continued for 2 weeks.

[6] = Stability, 7 days at T = 60° C.; assay type: physicochemical
KDR/VEGFR2 = KDR/VEGFR2 (Homo sapiens, UniProt P35968); experiment: Human kinase panel at 100 nM; assay type: biochemical
CYP2B6 = CYP2B6 (Homo sapiens, UniProt P20813); experiment: Metabolism study using cytochrome enzyme drugs; assay type: in vitro ADME; details: 2B6
EPHB2 = EPHB2 (Homo sapiens, UniProt P29323); experiment: Human kinase panel at 100 nM; assay type: biochemical
Bcr-Abl (M351T) = Bcr-Abl (M351T) (Homo sapiens, UniProt P00519, M351T, form not given); experiment: Bcr-Abl tyrosine kinase enzyme activity
[7] = dose of the substance administered

Chain of potassium hERG channel (Q12809 whole entry): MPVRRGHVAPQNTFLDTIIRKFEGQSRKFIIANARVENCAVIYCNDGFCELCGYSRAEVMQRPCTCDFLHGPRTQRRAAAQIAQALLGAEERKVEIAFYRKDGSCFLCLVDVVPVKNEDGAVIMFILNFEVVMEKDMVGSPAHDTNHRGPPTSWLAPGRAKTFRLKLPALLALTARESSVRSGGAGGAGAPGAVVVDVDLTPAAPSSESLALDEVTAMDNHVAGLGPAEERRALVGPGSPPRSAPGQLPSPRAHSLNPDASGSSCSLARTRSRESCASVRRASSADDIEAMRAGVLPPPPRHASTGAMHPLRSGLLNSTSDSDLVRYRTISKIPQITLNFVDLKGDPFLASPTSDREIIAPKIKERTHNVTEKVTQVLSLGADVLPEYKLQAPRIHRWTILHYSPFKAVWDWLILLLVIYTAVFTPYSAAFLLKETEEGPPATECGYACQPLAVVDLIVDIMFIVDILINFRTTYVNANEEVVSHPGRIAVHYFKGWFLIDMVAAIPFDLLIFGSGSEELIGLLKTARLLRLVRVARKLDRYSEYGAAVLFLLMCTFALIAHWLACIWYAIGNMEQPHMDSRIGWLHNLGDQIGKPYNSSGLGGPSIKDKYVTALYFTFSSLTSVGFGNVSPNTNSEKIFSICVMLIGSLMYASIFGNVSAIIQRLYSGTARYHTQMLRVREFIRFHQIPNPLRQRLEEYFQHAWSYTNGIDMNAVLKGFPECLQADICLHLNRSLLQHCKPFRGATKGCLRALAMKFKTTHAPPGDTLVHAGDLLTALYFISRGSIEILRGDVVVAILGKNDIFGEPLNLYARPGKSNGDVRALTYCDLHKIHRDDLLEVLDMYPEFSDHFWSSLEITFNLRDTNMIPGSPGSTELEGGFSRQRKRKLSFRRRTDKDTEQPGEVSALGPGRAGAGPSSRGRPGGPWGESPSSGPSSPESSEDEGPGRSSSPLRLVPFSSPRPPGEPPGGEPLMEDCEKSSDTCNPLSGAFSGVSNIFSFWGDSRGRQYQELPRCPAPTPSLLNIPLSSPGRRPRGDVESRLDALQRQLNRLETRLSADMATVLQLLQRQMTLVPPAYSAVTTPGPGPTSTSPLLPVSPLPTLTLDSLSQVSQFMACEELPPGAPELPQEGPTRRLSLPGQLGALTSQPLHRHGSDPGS
Chain of CYP2B6 (P20813 whole entry): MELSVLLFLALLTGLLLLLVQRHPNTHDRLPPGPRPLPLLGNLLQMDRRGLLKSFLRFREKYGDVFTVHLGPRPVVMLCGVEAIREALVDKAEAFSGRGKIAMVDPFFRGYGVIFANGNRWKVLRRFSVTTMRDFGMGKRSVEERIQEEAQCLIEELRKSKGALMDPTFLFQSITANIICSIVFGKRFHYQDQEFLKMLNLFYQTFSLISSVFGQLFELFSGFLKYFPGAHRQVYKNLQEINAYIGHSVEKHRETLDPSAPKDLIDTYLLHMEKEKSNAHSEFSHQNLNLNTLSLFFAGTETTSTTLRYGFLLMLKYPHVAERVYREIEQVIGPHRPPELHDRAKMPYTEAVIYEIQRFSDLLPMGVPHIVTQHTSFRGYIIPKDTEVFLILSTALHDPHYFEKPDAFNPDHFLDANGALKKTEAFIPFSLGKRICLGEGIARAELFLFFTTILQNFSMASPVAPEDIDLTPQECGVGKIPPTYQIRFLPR
Chain of EPHA8 (P29322 28-1005): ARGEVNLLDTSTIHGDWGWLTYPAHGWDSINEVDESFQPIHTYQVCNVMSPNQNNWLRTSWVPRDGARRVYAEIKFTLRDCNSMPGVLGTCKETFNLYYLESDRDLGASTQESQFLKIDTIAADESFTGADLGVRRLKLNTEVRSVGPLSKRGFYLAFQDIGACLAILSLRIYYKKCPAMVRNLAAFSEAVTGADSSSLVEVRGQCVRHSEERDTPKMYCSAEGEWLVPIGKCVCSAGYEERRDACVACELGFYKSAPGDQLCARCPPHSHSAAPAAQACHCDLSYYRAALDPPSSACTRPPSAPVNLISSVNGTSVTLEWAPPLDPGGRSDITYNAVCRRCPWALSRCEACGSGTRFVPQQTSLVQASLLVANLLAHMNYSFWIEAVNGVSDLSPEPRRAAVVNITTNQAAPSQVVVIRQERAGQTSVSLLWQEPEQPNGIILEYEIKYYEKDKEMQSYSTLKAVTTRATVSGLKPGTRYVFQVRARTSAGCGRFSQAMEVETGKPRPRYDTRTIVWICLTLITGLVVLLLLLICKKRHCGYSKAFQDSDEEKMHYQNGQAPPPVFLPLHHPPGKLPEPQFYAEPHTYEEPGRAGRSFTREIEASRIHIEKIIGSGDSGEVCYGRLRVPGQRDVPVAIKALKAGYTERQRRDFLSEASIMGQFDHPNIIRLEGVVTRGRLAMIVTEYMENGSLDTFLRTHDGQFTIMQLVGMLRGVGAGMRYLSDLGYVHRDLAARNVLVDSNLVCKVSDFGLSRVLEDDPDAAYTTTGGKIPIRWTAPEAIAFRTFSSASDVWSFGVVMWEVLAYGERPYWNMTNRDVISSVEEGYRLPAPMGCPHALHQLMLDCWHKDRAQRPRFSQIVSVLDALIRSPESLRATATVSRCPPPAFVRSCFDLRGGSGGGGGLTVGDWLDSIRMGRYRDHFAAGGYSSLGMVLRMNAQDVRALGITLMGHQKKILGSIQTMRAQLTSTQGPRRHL
Chain of KDR/VEGFR2 (P35968 20-1356): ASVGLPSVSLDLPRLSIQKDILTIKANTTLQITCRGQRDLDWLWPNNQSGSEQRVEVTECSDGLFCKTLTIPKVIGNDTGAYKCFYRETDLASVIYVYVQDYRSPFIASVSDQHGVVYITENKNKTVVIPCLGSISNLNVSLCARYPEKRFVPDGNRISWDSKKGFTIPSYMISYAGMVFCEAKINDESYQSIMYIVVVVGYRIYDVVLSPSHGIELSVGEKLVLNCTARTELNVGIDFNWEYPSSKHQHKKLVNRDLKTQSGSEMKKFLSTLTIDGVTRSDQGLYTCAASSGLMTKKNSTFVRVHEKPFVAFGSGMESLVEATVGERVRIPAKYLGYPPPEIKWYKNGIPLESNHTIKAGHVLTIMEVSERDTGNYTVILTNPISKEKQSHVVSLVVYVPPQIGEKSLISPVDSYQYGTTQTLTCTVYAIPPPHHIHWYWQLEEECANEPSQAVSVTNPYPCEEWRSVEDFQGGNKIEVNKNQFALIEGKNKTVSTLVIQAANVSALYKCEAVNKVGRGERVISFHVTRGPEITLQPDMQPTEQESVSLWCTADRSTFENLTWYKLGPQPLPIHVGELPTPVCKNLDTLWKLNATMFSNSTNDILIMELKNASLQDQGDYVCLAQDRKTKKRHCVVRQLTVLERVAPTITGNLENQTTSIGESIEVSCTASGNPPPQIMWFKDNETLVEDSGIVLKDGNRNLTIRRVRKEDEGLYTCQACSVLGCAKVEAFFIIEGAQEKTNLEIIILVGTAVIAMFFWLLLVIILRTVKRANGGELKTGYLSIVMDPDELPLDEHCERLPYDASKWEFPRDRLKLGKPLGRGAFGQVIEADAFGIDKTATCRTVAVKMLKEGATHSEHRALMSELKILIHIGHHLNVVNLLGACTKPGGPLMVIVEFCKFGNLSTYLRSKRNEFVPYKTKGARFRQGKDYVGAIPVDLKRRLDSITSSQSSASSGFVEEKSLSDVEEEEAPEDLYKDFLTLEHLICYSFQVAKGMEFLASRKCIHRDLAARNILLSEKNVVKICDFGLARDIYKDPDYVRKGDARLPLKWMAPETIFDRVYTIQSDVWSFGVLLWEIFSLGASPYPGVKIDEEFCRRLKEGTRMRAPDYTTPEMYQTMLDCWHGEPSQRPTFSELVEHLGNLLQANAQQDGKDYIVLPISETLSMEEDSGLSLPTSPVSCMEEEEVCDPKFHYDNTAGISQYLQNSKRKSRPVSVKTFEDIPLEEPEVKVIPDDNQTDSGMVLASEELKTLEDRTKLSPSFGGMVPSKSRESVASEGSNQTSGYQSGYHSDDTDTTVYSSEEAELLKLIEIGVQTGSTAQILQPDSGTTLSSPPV
Chain of CYP2D6 (P10635 whole entry): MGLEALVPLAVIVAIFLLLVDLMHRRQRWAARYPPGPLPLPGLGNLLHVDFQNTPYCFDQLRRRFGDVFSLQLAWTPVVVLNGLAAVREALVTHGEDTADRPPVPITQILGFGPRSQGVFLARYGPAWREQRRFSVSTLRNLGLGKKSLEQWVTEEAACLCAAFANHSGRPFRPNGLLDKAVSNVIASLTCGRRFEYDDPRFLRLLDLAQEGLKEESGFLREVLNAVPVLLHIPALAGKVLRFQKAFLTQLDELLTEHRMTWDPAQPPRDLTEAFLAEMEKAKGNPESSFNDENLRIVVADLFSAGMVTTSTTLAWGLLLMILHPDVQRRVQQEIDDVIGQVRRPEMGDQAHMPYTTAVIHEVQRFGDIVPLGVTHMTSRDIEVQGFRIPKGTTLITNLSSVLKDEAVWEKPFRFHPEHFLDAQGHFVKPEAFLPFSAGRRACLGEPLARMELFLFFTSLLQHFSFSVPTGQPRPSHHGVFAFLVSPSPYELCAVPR

For `CS(=O)(=O)O.Cc1ccc(C(=O)Nc2ccc(CN3CCN(C)CC3)c(C(F)(F)F)c2)cc1C#Cc1nnc2ccccn12` [methanesulfonic acid salt, 3-(1,2,4-triazolo[4,3-a]pyridine-3-ylethynyl)-4-methyl-N-(4-((4-methylpiperazin-1-yl)methyl)-3-trifluoromethylphenyl)benzamide mono methanesulfonic acid salt], the IC50 (Bcr-Abl (G250E)) was 7.4 nM, the IC50 (Bcr-Abl (Y253F)) was 4.1 nM and the inhibition at 0.1 µM (EPHA8) was over 50%. For the same compound, the genotoxic effects (Gene toxicity: Ames test) was “had no genotoxic effects”, the IC50 (Bcr-Abl (H396P)) was 1 nM and the IC50 (BV-173) was 5 nM. For the same compound, the IC50 (Bcr-Abl (T315I)) was 0.78 to 21 nM, the solubility thermodynamic (physchem) was over 100 mg/mL and the LD10 (mice; calculated as the free base) was 678 mg/kg. For the same compound, the LD10 (mice; dose of the salt) was 800 mg/kg, the “signs of animal intoxication” value (CD-1 line mice males; mouse, in vivo, po) was “dyspnea, hypodynamia, tumbled fur, diarrhea, bloating, in some animals—focal alopecia” and the LD10 (CD-1 line mice males; calculated as a free base) was “(508*) mg/kg”. The LD90 (CD-1 line mice males; calculated as a free base) was “(1,864*) mg/kg”, the LD10 (CD-1 line mice males; [7]) was 600 mg/kg and the LD90 (CD-1 line mice males; [7]) was 2,200 mg/kg. For the same compound, the LD50 at 28 days ([1]; calculated as a free base) was 1190 mg/kg, the LD50 at 28 days [1, 7] was 1400 mg/kg and the Kp ([2]; bone marrow, read-out: concentration in bone marrow relative to plasma) was 27. It also gave a Kp ([2]; brain, read-out: exposure in brain relative to blood plasma exposure) of about 0.2, a Kp ([2]; kidneys, read-out: concentration in kidneys relative to plasma) of 34 and a Kp ([2]; liver, read-out: concentration in liver relative to plasma) of 21. For the same compound, the Kp ([2]; lungs, read-out: concentration in lungs relative to blood plasma) was about 71, the Kp ([2]; spleen, read-out: concentration in spleen relative to plasma) was 45 and the Cmax (in vivo [3]) was 1100 ng/mL. The allergenic activity (Guinea pigs and mice) was “did not display any detectable allergenic activity”, the IC50 (potassium hERG channel) was 7800 nM and the “participation of the isoform in metabolism” value (CYP2D6) was “does not involve”. The IC50 (K562) was 8 nM, the Vd (in vivo [4]; dog, dogs) was 14.1 L/kg and the half-life (in vivo [4]; dog, dogs) was about 7 h. It also gave a clearance (in vivo [4]; dog, dogs) of 35.3 mL/min/kg, an AUC (in vivo [4]; dog, oral, dogs, 2 mg/kg) of 420 ng·h/mL and an AUC (in vivo [4]; dog, oral, dogs, 22 mg/kg) of 5480 ng·h/mL. The AUC (in vivo [4]; dog, oral, dogs, 45 mg/kg) was 5170 ng·h/mL, the bioavailability (in vivo [4]; dog, oral, dogs, 2 to 22 mg/kg (2 to 19 mg/kg as free base)) was 45.9 to 66.1% and the maximum plasma concentration (in vivo [4]; oral, dogs, 2 to 45 mg/kg) was 31.8 to 224 ng/mL. The “time to maximum plasma concentration” value (in vivo [4]; oral, dogs, 2 to 45 mg/kg) was 3 to 8.5 h, the maximum concentration (in vivo [4]; oral, rats, 5 mg/kg) was 72 ng/mL and the maximum concentration (in vivo [4]; oral, rats, 80 mg/kg) was 1250 ng/mL. The “time to maximum concentration” value (in vivo [4]; oral, rats, 5 to 80 mg/kg) was 2.3 to 5.3 h, the clearance (in vivo [4]; rat, rats) was 26.8 mL/min/kg and the AUC (in vivo [4]; rat, oral, rats, 5 mg/kg) was 430 ng·h/mL. The AUC (in vivo [4]; rat, oral, rats, 80 mg/kg) was 21100 ng·h/mL, the bioavailability (in vivo [4]; rat, oral, rats, 5 to 80 mg/kg (4.2 to 68 mg/kg as free base)) was 13.8 to 59.5% and the Vd (in vivo [4]; rat, rats) was 6.16 L/kg. The half-life (in vivo [4]; rat, rats) was about 3 h, the “increase of average lives compared to the control group” value [5] was “more than 25%” and the “Crystallinity in 7 days” value ([6]; 7 days at T = 60° C.) was “Cryst”. For the same compound, the “Relative peak area, in 7 days” value ([6]; 7 days at T = 60° C.) was 99.7%, the “Relative peak area, initial” value ([6]; before storage) was 99.7% and the content of impurities ([6]; kept seven days at 60° C.) was “remained constant”. For the same compound, the inhibition at 0.1 µM (KDR/VEGFR2) was over 50%, the “participation of the isoform in metabolism” value (CYP2B6) was “does not involve” and the inhibition at 0.1 µM (EPHB2) was over 50%. It also gave an IC50 (Bcr-Abl (M351T)) of 2.8 nM.
